Measurements from US9149038B2, “4-amino-6-(heterocyclic)picolinates and 6-amino-2-(heterocyclic)pyrimidine-4-carboxylates and their use as herbicides” (Dow AgroSciences LLC, priority 2013, dated 2015).
Like-named read-outs stand apart in the source and are kept apart here.

What was measured:
[1] = test system: Key Grass and Sedge Weeds as well as Grass Crops; experiment: Post-Emergent Test II: postemergent herbicidal activity, visual rating after 14 d (Table 8); assay type: in vivo; conditions: post-emergence, 336 h; for pest or weed control at 35 g/ha: 35 g ai/ha; for pest or weed control at 70 g/ha: 70 g ai/ha; for pest or weed control at 140 g/ha: 140 g ai/ha
Summary of the method: (§1)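 Scoring is visual, 0-100, at 14 d after application, comparing treated with untreated plants. Application: overhead track spray at 187 L/ha onto seedlings at 1-2 true leaves, in surfactant/crop-oil carrier.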

[2] = test system: Key Broadleaf Weed and Crop Species; experiment: Post-Emergent Test II: postemergent herbicidal activity, visual rating after 14 d (Table 7); assay type: in vivo; conditions: post-emergence, 336 h; for pest or weed control at 35 g/ha: 35 g ai/ha; for pest or weed control at 70 g/ha: 70 g ai/ha; for pest or weed control at 140 g/ha: 140 g ai/ha
Summary of the method: as §1

[3] = barnyardgrass (Echinochloa crus-galli), read-out: Visual Growth Reduction (%) 14 Days After Application ECHCG
[4] = giant foxtail (Setaria faberi), read-out: Visual Growth Reduction (%) 14 Days After Application SETFA
[5] = maize, corn (Zea mays), read-out: Visual Growth Reduction (%) 14 Days After Application ZEAMX
[6] = rice (Oryza sativa), read-out: Visual Growth Reduction (%) 14 Days After Application ORYSA
[7] = wheat, spring (Triticum aestivum), read-out: Visual Growth Reduction (%) 14 Days After Application TRZAS
[8] = yellow nutsedge (Cyperus esculentus), read-out: Visual Growth Reduction (%) 14 Days After Application CYPES
[9] = lambsquarters (Chenopodium album), read-out: Visual Growth Reduction (%) 14 Days After Application CHEAL
[10] = oilseed rape, canola (Brassica napus), read-out: Visual Growth Reduction (%) 14 Days After Application BRSNN
[11] = redroot pigweed (Amaranthus retroflexus), read-out: Visual Growth Reduction (%) 14 Days After Application AMARE
[12] = sunflower (Helianthus annuus), read-out: Visual Growth Reduction (%) 14 Days After Application HELAN
[13] = velvetleaf (Abutilon theophrasti), read-out: Visual Growth Reduction (%) 14 Days After Application ABUTH
[14] = wild poinsettia (Euphorbia heterophylla), read-out: Visual Growth Reduction (%) 14 Days After Application EPHHL

COC(=O)c1nc(-c2cc3c(cc2F)OCO3)cc(N)c1Cl [Compound 45]
pest or weed control at 35 g/ha [1, 3]: 75 to 84%
pest or weed control at 70 g/ha [1, 3]: 75 to 84%
pest or weed control at 140 g/ha [1, 3]: 85 to 94%
pest or weed control at 35 g/ha [1, 4]: 60 to 74%
pest or weed control at 70 g/ha [1, 4]: 60 to 74%
pest or weed control at 140 g/ha [1, 4]: 85 to 94%
pest or weed control at 35 g/ha [1, 5]: 45 to 59%
pest or weed control at 70 g/ha [1, 5]: 60 to 74%
pest or weed control at 140 g/ha [1, 5]: 75 to 84%
pest or weed control at 35 g/ha [1, 6]: 45 to 59%
pest or weed control at 70 g/ha [1, 6]: 60 to 74%
pest or weed control at 140 g/ha [1, 6]: 60 to 74%
pest or weed control at 35 g/ha [1, 7]: 30 to 44%
pest or weed control at 70 g/ha [1, 7]: 45 to 59%
pest or weed control at 140 g/ha [1, 7]: 60 to 74%
pest or weed control at 35 g/ha [1, 8]: 30 to 44%
pest or weed control at 70 g/ha [1, 8]: 30 to 44%
pest or weed control at 140 g/ha [1, 8]: 60 to 74%
pest or weed control at 35 g/ha [2, 9]: 85 to 94%
pest or weed control at 70 g/ha [2, 9]: 95 to 100%
pest or weed control at 140 g/ha [2, 9]: 95 to 100%
pest or weed control at 35 g/ha [2, 10]: 75 to 84%
pest or weed control at 70 g/ha [2, 10]: 95 to 100%
pest or weed control at 140 g/ha [2, 10]: 95 to 100%
pest or weed control at 35 g/ha [2, 11]: 95 to 100%
pest or weed control at 70 g/ha [2, 11]: 95 to 100%
pest or weed control at 140 g/ha [2, 11]: 95 to 100%
pest or weed control at 35 g/ha [2, 12]: 60 to 74%
pest or weed control at 70 g/ha [2, 12]: 60 to 74%
pest or weed control at 140 g/ha [2, 12]: 75 to 84%
pest or weed control at 35 g/ha [2, 13]: 95 to 100%
pest or weed control at 70 g/ha [2, 13]: 95 to 100%
pest or weed control at 140 g/ha [2, 13]: 95 to 100%
pest or weed control at 35 g/ha [2, 14]: 75 to 84%
pest or weed control at 70 g/ha [2, 14]: 85 to 94%
pest or weed control at 140 g/ha [2, 14]: 95 to 100%

COC(=O)c1nc(-c2c(F)cc3c(c2F)OC(F)(F)O3)cc(N)c1Cl [Compound 46]
pest or weed control at 35 g/ha [1, 3]: 45 to 59%
pest or weed control at 70 g/ha [1, 3]: 60 to 74%
pest or weed control at 140 g/ha [1, 3]: 85 to 94%
pest or weed control at 35 g/ha [1, 4]: 0 to 29%
pest or weed control at 70 g/ha [1, 4]: 0 to 29%
pest or weed control at 140 g/ha [1, 4]: 0 to 29%
pest or weed control at 35 g/ha [1, 5]: 0 to 29%
pest or weed control at 70 g/ha [1, 5]: 45 to 59%
pest or weed control at 140 g/ha [1, 5]: 75 to 84%
pest or weed control at 35 g/ha [1, 6]: 0 to 29%
pest or weed control at 70 g/ha [1, 6]: 0 to 29%
pest or weed control at 140 g/ha [1, 6]: 0 to 29%
pest or weed control at 35 g/ha [1, 7]: 0 to 29%
pest or weed control at 70 g/ha [1, 7]: 30 to 44%
pest or weed control at 140 g/ha [1, 7]: 45 to 59%
pest or weed control at 35 g/ha [1, 8]: 95 to 100%
pest or weed control at 70 g/ha [1, 8]: 95 to 100%
pest or weed control at 140 g/ha [1, 8]: 95 to 100%
pest or weed control at 35 g/ha [2, 9]: 95 to 100%
pest or weed control at 70 g/ha [2, 9]: 95 to 100%
pest or weed control at 140 g/ha [2, 9]: 95 to 100%
pest or weed control at 35 g/ha [2, 10]: 95 to 100%
pest or weed control at 70 g/ha [2, 10]: 95 to 100%
pest or weed control at 140 g/ha [2, 10]: 95 to 100%
pest or weed control at 35 g/ha [2, 11]: 95 to 100%
pest or weed control at 70 g/ha [2, 11]: 95 to 100%
pest or weed control at 140 g/ha [2, 11]: 95 to 100%
pest or weed control at 35 g/ha [2, 12]: 0 to 29%
pest or weed control at 70 g/ha [2, 12]: 30 to 44%
pest or weed control at 140 g/ha [2, 12]: 60 to 74%
pest or weed control at 35 g/ha [2, 13]: 85 to 94%
pest or weed control at 70 g/ha [2, 13]: 95 to 100%
pest or weed control at 140 g/ha [2, 13]: 95 to 100%
pest or weed control at 35 g/ha [2, 14]: 30 to 44%
pest or weed control at 70 g/ha [2, 14]: 60 to 74%
pest or weed control at 140 g/ha [2, 14]: 85 to 94%

COC(=O)c1nc(-c2ccc3c(c2OC)OC(F)(F)O3)cc(N)c1Cl [Compound 47]
pest or weed control at 35 g/ha [1, 3]: 0 to 29%
pest or weed control at 70 g/ha [1, 3]: 0 to 29%
pest or weed control at 140 g/ha [1, 3]: 0 to 29%
pest or weed control at 35 g/ha [1, 4]: 0 to 29%
pest or weed control at 70 g/ha [1, 4]: 0 to 29%
pest or weed control at 140 g/ha [1, 4]: 0 to 29%
pest or weed control at 35 g/ha [1, 5]: 0 to 29%
pest or weed control at 70 g/ha [1, 5]: 0 to 29%
pest or weed control at 140 g/ha [1, 5]: 0 to 29%
pest or weed control at 35 g/ha [1, 6]: 0 to 29%
pest or weed control at 70 g/ha [1, 6]: 0 to 29%
pest or weed control at 140 g/ha [1, 6]: 0 to 29%
pest or weed control at 35 g/ha [1, 7]: 0 to 29%
pest or weed control at 70 g/ha [1, 7]: 0 to 29%
pest or weed control at 140 g/ha [1, 7]: 0 to 29%
pest or weed control at 35 g/ha [1, 8]: 0 to 29%
pest or weed control at 70 g/ha [1, 8]: 0 to 29%
pest or weed control at 140 g/ha [1, 8]: 0 to 29%
pest or weed control at 35 g/ha [2, 9]: 30 to 44%
pest or weed control at 70 g/ha [2, 9]: 30 to 44%
pest or weed control at 140 g/ha [2, 9]: 45 to 59%
pest or weed control at 35 g/ha [2, 10]: 60 to 74%
pest or weed control at 70 g/ha [2, 10]: 60 to 74%
pest or weed control at 140 g/ha [2, 10]: 60 to 74%
pest or weed control at 35 g/ha [2, 11]: 0 to 29%
pest or weed control at 70 g/ha [2, 11]: 75 to 84%
pest or weed control at 140 g/ha [2, 11]: 85 to 94%
pest or weed control at 35 g/ha [2, 12]: 30 to 44%
pest or weed control at 70 g/ha [2, 12]: 30 to 44%
pest or weed control at 140 g/ha [2, 12]: 45 to 59%
pest or weed control at 35 g/ha [2, 13]: 0 to 29%
pest or weed control at 70 g/ha [2, 13]: 30 to 44%
pest or weed control at 140 g/ha [2, 13]: 60 to 74%
pest or weed control at 35 g/ha [2, 14]: 0 to 29%
pest or weed control at 70 g/ha [2, 14]: 0 to 29%
pest or weed control at 140 g/ha [2, 14]: 0 to 29%

COC(=O)c1nc(-c2c(F)cc3c(c2F)OCO3)cc(N)c1Cl [Compound 48]
pest or weed control at 35 g/ha [1, 3]: 75 to 84%
pest or weed control at 70 g/ha [1, 3]: 75 to 84%
pest or weed control at 140 g/ha [1, 3]: 85 to 94%
pest or weed control at 35 g/ha [1, 4]: 0 to 29%
pest or weed control at 70 g/ha [1, 4]: 60 to 74%
pest or weed control at 140 g/ha [1, 4]: 75 to 84%
pest or weed control at 35 g/ha [1, 5]: 30 to 44%
pest or weed control at 70 g/ha [1, 5]: 60 to 74%
pest or weed control at 140 g/ha [1, 5]: 75 to 84%
pest or weed control at 35 g/ha [1, 6]: 30 to 44%
pest or weed control at 70 g/ha [1, 6]: 45 to 59%
pest or weed control at 140 g/ha [1, 6]: 60 to 74%
pest or weed control at 35 g/ha [1, 7]: 0 to 29%
pest or weed control at 70 g/ha [1, 7]: 30 to 44%
pest or weed control at 140 g/ha [1, 7]: 60 to 74%
pest or weed control at 35 g/ha [1, 8]: 0 to 29%
pest or weed control at 70 g/ha [1, 8]: 0 to 29%
pest or weed control at 140 g/ha [1, 8]: 30 to 44%
pest or weed control at 35 g/ha [2, 9]: 95 to 100%
pest or weed control at 70 g/ha [2, 9]: 95 to 100%
pest or weed control at 140 g/ha [2, 9]: 95 to 100%
pest or weed control at 35 g/ha [2, 10]: 95 to 100%
pest or weed control at 70 g/ha [2, 10]: 95 to 100%
pest or weed control at 140 g/ha [2, 10]: 95 to 100%
pest or weed control at 35 g/ha [2, 11]: 85 to 94%
pest or weed control at 70 g/ha [2, 11]: 95 to 100%
pest or weed control at 140 g/ha [2, 11]: 95 to 100%
pest or weed control at 35 g/ha [2, 12]: 0 to 29%
pest or weed control at 70 g/ha [2, 12]: 45 to 59%
pest or weed control at 140 g/ha [2, 12]: 60 to 74%
pest or weed control at 35 g/ha [2, 13]: 85 to 94%
pest or weed control at 70 g/ha [2, 13]: 95 to 100%
pest or weed control at 140 g/ha [2, 13]: 95 to 100%
pest or weed control at 35 g/ha [2, 14]: 95 to 100%
pest or weed control at 70 g/ha [2, 14]: 95 to 100%
pest or weed control at 140 g/ha [2, 14]: 95 to 100%
